Experimental data published in US8802597B2, “Herbicidal pyrimidines” (E I du Pont de Nemours and Company, priority 2003, dated 2014).

Experiments:
Assay in all cases: Test A pre/postemergence
Type in all cases: in vivo
[1] = test system: barnyardgrass (Echinochloa crus-galli)
Experimental: (§1) Seeds of barnyardgrass (Echinochloa crus-galli), crabgrass (Digitaria sanguinalis), giant foxtail (Setaria faberi), morningglory (Ipomoea spp.), redroot pigweed (Amaranthus retroflexus) and velvetleaf (Abutilon theophrasti) were planted into a blend of loam soil and sand and treated preemergence with a directed soil spray using test chemicals formulated in a non-phytotoxic solvent mixture which included a surfactant. At the same time these species were also treated with postemergence applications of test chemicals formulated in the same manner.
(§2) Plants ranged in height from 2 to 10 cm and were in the 1- to 2-leaf stage for the postemergence treatment. Treated plants and untreated controls were maintained in a greenhouse for approximately ten days, after which time all treated plants were compared to untreated controls and visually evaluated for injury. Plant response ratings, summarized in Table A, are based on a 0 to 100 scale where 0 is no effect and 100 is complete control. A dash (-) response means no test results.

[2] = test system: crabgrass (Digitaria sanguinalis)
Experimental: as §1, §2

[3] = test system: giant foxtail (Setaria faberi)
Experimental: as §1, §2

[4] = test system: morningglory (Ipomoea spp.)
Experimental: as §1, §2

[5] = test system: redroot pigweed (Amaranthus retroflexus)
Experimental: as §1, §2

[6] = test system: velvetleaf (Abutilon theophrasti)
Experimental: as §1, §2

[7] = Postemergence, 125 g ai/ha, 0 to 100 scale (0 no effect, 100 complete control)
[8] = Postemergence, 500 g ai/ha, 0 to 100 scale (0 no effect, 100 complete control)
[9] = Preemergence, 125 g ai/ha, 0 to 100 scale where 0 is no effect and 100 is complete control, approximately ten days
[10] = Preemergence, 500 g ai/ha, 0 to 100 scale where 0 is no effect and 100 is complete control, approximately ten days

SMILES | Plant response rating, Barnyardgrass [1, 7] | Plant response rating, Barnyardgrass [1, 8] | Plant response rating, Barnyardgrass [1, 9] | Plant response rating, Barnyardgrass [1, 10] | Plant response rating, Crabgrass [2, 7] | Plant response rating, Crabgrass [2, 8] | Plant response rating, Crabgrass [2, 9] | Plant response rating, Crabgrass [2, 10] | Plant response rating, Foxtail, Giant [3, 7] | Plant response rating, Foxtail, Giant [3, 8] | Plant response rating, Foxtail, Giant [3, 9] | Plant response rating, Foxtail, Giant [3, 10] | Plant response rating, Morningglory [4, 7] | Plant response rating, Morningglory [4, 8] | Plant response rating, Morningglory [4, 9] | Plant response rating, Morningglory [4, 10] | Plant response rating, Pigweed [5, 7] | Plant response rating, Pigweed [5, 8] | Plant response rating, Pigweed [5, 9] | Plant response rating, Pigweed [5, 10] | other results
Nc1nc(C2CC2)nc(C(=O)Oc2ccc(Cl)cc2)c1Cl [Compound 145] | 30 | 60 | 30 | 75 | 5 | 30 | 65 | 80 | 20 | 70 | 0 | 60 | 80 | 95 | 75 | 100 | 80 | 90 | 65 | 85 | Plant response rating, Velvetleaf [6, 7]: 75; Plant response rating, Velvetleaf [6, 8]: 95; Plant response rating, Velvetleaf [6, 9]: 70; Plant response rating, Velvetleaf [6, 10]: 85
Nc1nc(C2CC2)nc(C(=O)OCC2CO2)c1Cl (stereo not drawn) [Compound 140] | 70 | 90 | 70 | 90 | 65 | 80 | 70 | 90 | 85 | 90 | 40 | 85 | 85 | 90 | 90 | 95 | 90 | 100 | 90 | 95 | Plant response rating, Velvetleaf [6, 7]: 90; Plant response rating, Velvetleaf [6, 8]: 90; Plant response rating, Velvetleaf [6, 9]: 90; Plant response rating, Velvetleaf [6, 10]: 95
Nc1nc(C2CC2)nc(C(=O)OCC2COC(=O)O2)c1Cl (stereo not drawn) [Compound 149] | 65 | 90 | 70 | 85 | 25 | 75 | 20 | 75 | 60 | 80 | 35 | 90 | 80 | 95 | 85 | 100 | 75 | 90 | 70 | 90 | Plant response rating, Velvetleaf [6, 7]: 85; Plant response rating, Velvetleaf [6, 8]: 100; Plant response rating, Velvetleaf [6, 9]: 70; Plant response rating, Velvetleaf [6, 10]: 85
CCOC(=O)COc1nc(C2CC2)nc(N)c1Cl [Compound 115] | 0 | 0 | 0 | 20 | 0 | 0 | 0 | 10 | 0 | 0 | 0 | 0 | 35 | 60 | 25 | 35 | 10 | 45 | 30 | 40 | Plant response rating, Velvetleaf [6, 7]: 30; Plant response rating, Velvetleaf [6, 8]: 40; Plant response rating, Velvetleaf [6, 9]: 5; Plant response rating, Velvetleaf [6, 10]: 10
CS(=O)(=O)NC(=O)c1nc(-c2ccc(Cl)cc2)nc(N)c1Cl [Compound 131] | 10 | 20 | 0 | 0 | 10 | 30 | 0 | 0 | 15 | 30 | 0 | 0 | 0 | 20 | 0 | 0 | 50 | 70 | 0 | 0 | Plant response rating, Velvetleaf [6, 7]: 35; Plant response rating, Velvetleaf [6, 8]: 60; Plant response rating, Velvetleaf [6, 9]: 0; Plant response rating, Velvetleaf [6, 10]: 0
CCOC(=O)Cc1nc(-c2ccc(Cl)cc2)nc(N)c1Cl [Compound 120] | 10 | 40 | 5 | 15 | 0 | 5 | 0 | 0 | 0 | 0 | 0 | 0 | 25 | 55 | 0 | 0 | 20 | 35 | 0 | 0 | Plant response rating, Velvetleaf [6, 7]: 50; Plant response rating, Velvetleaf [6, 8]: 65; Plant response rating, Velvetleaf [6, 9]: 0; Plant response rating, Velvetleaf [6, 10]: 0
CCOC(=O)c1nc(-c2ccc(C(F)(F)F)cc2)nc(N)c1Cl [Compound 104] | 0 | 10 | 0 | 5 | 15 | 30 | 0 | 10 | 0 | 5 | 0 | 5 | 25 | 40 | 0 | 0 | 30 | 45 | 0 | 10 | Plant response rating, Velvetleaf [6, 7]: 70; Plant response rating, Velvetleaf [6, 8]: 80; Plant response rating, Velvetleaf [6, 9]: 0; Plant response rating, Velvetleaf [6, 10]: 10
COC(=O)c1nc(-c2ccc(C)cc2)nc(N)c1Br [Compound 82] | 40 | 50 | 0 | 15 | 0 | 0 | 0 | 0 | 0 | 0 | 0 | 0 | 20 | 40 | 0 | 0 | 45 | 75 | 0 | 70 | Plant response rating, Velvetleaf [6, 7]: 90; Plant response rating, Velvetleaf [6, 8]: 90; Plant response rating, Velvetleaf [6, 9]: 5; Plant response rating, Velvetleaf [6, 10]: 35
Nc1nc(C2CC2)nc(C(=O)OCCCOC(=O)c2nc(C3CC3)nc(N)c2Cl)c1Cl [Compound 142] | 45 | 75 | 50 | 75 | 15 | 25 | 45 | 85 | 30 | 45 | 25 | 65 | 90 | 90 | 85 | 95 | 85 | 90 | 70 | 90 | Plant response rating, Velvetleaf [6, 7]: 80; Plant response rating, Velvetleaf [6, 8]: 90; Plant response rating, Velvetleaf [6, 9]: 85; Plant response rating, Velvetleaf [6, 10]: 85
